pEC50: −log10 of the molar value. Where two headings read alike, the source gives them in different places. Square brackets hold non-standard residues; d marks the D form. dAc‑VIN = 4-desacetylvinblastine; Chg = N[C@H](C(=O)O)C1CCCCC1
How the values were obtained:
[1] = test system: LNCaP prostate tumor cells; test: In vitro cytotoxicity, Alamar Blue assay, LNCaP cell kill; type: cell-based; details: 72 HRS
Description: (§1) In vitro Assay of Cytotoxicity of Peptidyl Derivatives of Vinca Drugs
(§2) Specifically, cell cultures of LNCap prostate tumor cells, Colo32ODM cells (designated C320) or T47D cells in 96 well plates was diluted with medium containing various concentrations of a given conjugate (final plate well volume of 200 μl). […] The cells were incubated for 3 days at 37° C., 20 μl of Alamar Blue is added to the assay well. The cells were further incubated and the assay plates were read on a EL-310 ELISA reader at the dual wavelengths of 570 and 600 nm at 4 and 7 hours after addition of Alamar Blue. Relative percentage viability at the various concentration of conjugate tested was then calculated versus control (no conjugate) cultures and an EC50 was determined. Unless otherwise indicated, the acetate salt of the conjugate was tested.

[2] = target: T1, free PSA (York PSA) (Homo sapiens, UniProt P07288); test: Recognition of oligopeptide-vinca drug conjugates by free PSA (time to 50% cleavage, HPLC); type: biochemical; details: for Time to 50% Substrate Cleavage by York PSA: conjugate to PSA molar ratio 100 to 1, pH 7.4
T1 construct: purchased York ('York PSA')
Description: The reaction was quenched after various reaction times by the addition of trifluoroacetic acid (TFA) to a final 1% (volume/volume). Alternatively the reaction is quenched with 10 mM ZnCl2. The quenched reaction was analyzed by HPLC on a reversed-phase C18 column using an aqueous 0.1%TFA/acetonitrile gradient. The amount of time (in minutes) required for 50% cleavage of the noted oligopeptide-cytotoxic agent conjugates with enzymatically active free PSA were then calculated.

[3] = test system: Colo320DM cells; test: In vitro cytotoxicity, Alamar Blue assay, Colo320DM control cell line (does not express free PSA); type: cell-based; details: 72 HRS
Description: as §1
as §2, with “The cytotoxicities of the cleaveable oligopeptide-vinca drug conjugates, prepared as described in Example 3, against a line of cells which is known to be killed by unmodified vinca drug was assessed with an Alamar Blue assay. Specifically,” for “Specifically,”

[4] = read-out: LNCaP Cell Kill in 72 HRS. {48 HRS} EC 50
[5] = second part of Table 2, read-out: LNCaP Cell Kill in 72 HRS. {48 HRS} EC 50
[6] = second part of Table 2, read-out: Colo320DM EC 50

T1 sequence (P07288 25-261): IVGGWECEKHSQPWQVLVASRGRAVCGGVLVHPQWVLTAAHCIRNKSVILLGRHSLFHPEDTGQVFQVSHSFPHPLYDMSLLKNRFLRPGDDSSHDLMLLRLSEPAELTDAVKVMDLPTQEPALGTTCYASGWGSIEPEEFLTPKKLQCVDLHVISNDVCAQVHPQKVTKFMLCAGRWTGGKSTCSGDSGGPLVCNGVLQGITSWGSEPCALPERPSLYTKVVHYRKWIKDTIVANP

| Substance | pEC50 [1, 4] | Time to 50% Substrate Cleavage by York PSA [2] [min] | pEC50 ([3]; read-out: Colo320DM EC 50) | pEC50 [1, 5] | Substrate cleavage by York PSA, 10 X ENZ o/n ([2]; 10 X ENZ, o/n) [%] | pEC50 [3, 6] |
| --- | --- | --- | --- | --- | --- | --- |
| 4-O-(Ac-SSChgQS-Gly)-(dAc)-VIN: peptide-vinca drug conjugate, SEQ ID NO 98 (Ac-SS[Chg]QSG-{dAc‑VIN}; also: C-terminal ester to 4-OH of desacetylvinblastine) | 4.79 | 55 | 4.79 | – | – | – |
| 4-O-[Ac-4-trans-L-HypSSChg(dQ)SSP]-dAc-VIN: peptide-vinca drug conjugate, SEQ ID NO 114 (XSSXXSSP; N-acetyl; D-Gln; desacetylvinblastine conjugate) | – | – | – | 4.91 | 0 | 4.36 |
| 4-O-[Ac-4-trans-L-HypSSChgQSS-Pip]-dAc-VIN: peptide-vinca drug conjugate, SEQ ID NO 124 (XSSXQSSX; N-acetyl; desacetylvinblastine conjugate) | – | 13 | – | 5.12 | – | 4.22 |
| 4-O-[Ac--SChgQSS-Sar]-dAc-VIN: peptide-vinca drug conjugate, SEQ ID NO 118 (XXQSSG; N-acetyl; desacetylvinblastine conjugate) | – | 39 | – | 6.10 | – | 5.52 |
| Ac-4-trans-L-HypSSChgQS-(4-O-Ala)-(dAc)-VIN: peptide-vinca drug conjugate, SEQ ID NO 103 (XSSXQSA; N-acetyl; desacetylvinblastine conjugate) | – | 23 | – | 4.90 | – | 4.49 |
| Ac-AbuSSChgQ-SS-(4-O-P)-dAc-VIN: peptide-vinca drug conjugate, SEQ ID NO 109 in Table 1, 108 in Table 2 (XSSXQSSP; N-acetyl; desacetylvinblastine conjugate) | – | 7 | – | 4.89 | – | 4.55 |
| des-Acetylvinblastine-4-O-(N-Acetyl-4-trans-L-Hyp-Ser-Ser Chg-Gln-Ser-Ser-Pro) ester acetate (XSSXQSSP; N-acetyl; desacetylvinblastine ester; acetate salt) | 5.52 | 17 | 4.92 | – | – | – |
